Patent US11325892B2, “Compounds and methods for treating cancer” (Mayo Foundation for Medical Education and Research, priority 2014, dated 2022)

How the values were obtained:
Format in all cases: cell-based
[1] = test system: PARP cleavage and CHOP expression in THJ29T and THJ16T; test: Western blot for PARP cleavage and CHOP expression, combinatorial therapy; settings: EC50 doses, 48H
Description: (§1) Protein extraction and western blot analysis was performed as previously described (Copland J A, Marlow L A, Kurakata S, et al. Novel high-affinity PPARgamma agonist alone and in combination with paclitaxel inhibits human anaplastic thyroid carcinoma tumor growth via p21WAF1/CIP1. Oncogene. Apr 13 2006; 25(16):2304-2317). Primary antibodies included SCD1 (Sigma-Aldrich, #HPA012107), BiP (Cell Signaling, #3183), CHOP (Cell Signaling, #2895), sXBP1(Santa Cruz Biotechnology, #sc-7160), PARP(Cell Signaling, #9542), and β-actin (Sigma-Aldrich, #A5441).
THJ29T and THJ16T treated for 48H with EC50 doses of either A939572 or MF-438 in combination with either carfilzomib or bortezomib were probed for PARP cleavage and CHOP expression, both markers indicative of apoptosis (FIGS. 14A-B, 15A-B). […] Cell death was additionally examined via flow cytometry using propidium iodide staining. THJ29T and THJ16T were treated for 48H with EC50 doses of either A939572 or MF-438 in combination with either carfilzomib or bortezomib prior to staining and analysis.

[2] = test system: PARP cleavage, CHOP, s-XBP1, HERPUD1 in ATC cells; test: PARP cleavage and UPR protein expression in ATC cells; settings: EC50 dose for 72H; all three ATC cells; abrogated with OA
Description: as §1
Cells were plated in 4-chamber slides (Thermo Scientific) prior to drug treatment. […]
Exogenous application of MUFAs, such as oleic or palmitoleic acid, can rescue the proliferative defects generated by SCD1 inhibition as these are the primary products of SCD1 enzymatic activity (Roongta U V, Pabalan J G, Wang X, Ryseck R P, Fargnoli J, Henley B J, Yang W P, Zhu J, Madireddi M T, Lawrence R M, Wong T W, Rupnow B A. Cancer cell dependence on unsaturated fatty acids implicates stearoyl-CoA desaturase as a target for cancer therapy. Mol Cancer Res. 2011; 9(11):1551-61). […] Transcriptional upregulation of UPR markers including GADD45a (Growth arrest and DNA damage inducible transcript 1, DDIT1), DDIT3 (DNA damage inducible transcript 3, CHOP), and HERPUD1 homocysteine-inducible, ER stress inducible, ubiquitin-like-1) were evaluated by QPCR.

[3] = test system: THJ29T, THJ16T and KTC2 cells; test: Oleic acid rescue of proliferation in ATC cells; settings: EC50 dose for 72H with 5 μM oleic acid
Description: Cells were seeded at 5,000 cells/well in clear-bottom 96-well plates in triplicate in Maintenance Media. Drug treatment was applied at a concentration of 1:1000 in reduced serum (3%) Maintenance Media. After 72 hours, cells were washed with PBS, and stored at −80° C. prior to analysis using CyQuant® Proliferation Analysis Kit (Invitrogen) as per manufacturers' protocol for relative fluorescence units. Alternatively, cells were plated 2×10^5/well in 12-well plates (Midwest Scientific) in triplicate prior to drug treatment. After 120 hour treatment, cell number was established using a Coulter Particle Counter (Beckman). Or, cells were plated (0.5 or 1×10^5/well) in 24-well plates (Midwest Scientific), 3×. After 72 hour treatment, cell number established using Coulter Particle Counter (Beckman). Oleic acid-albumin (Sigma Aldrich) was added to media at 5 μM, and was applied adjuvant to drug treatment. Drug stocks were prepared in DMSO (Sigma) at 1000×. EC50 dosing per cell line was calculated using CalcuSyn® analytical software. […]

ATC cells = test: Proliferative dose response of thyroid cells; settings: ATC cells; for proliferation: 72H treatment; for 50% effective concentrations (EC50): proliferation
Description: Cells were seeded at 5,000 cells/well in clear-bottom 96-well plates in triplicate in Maintenance Media. Drug treatment was applied at a concentration of 1:1000 in reduced serum (3%) Maintenance Media. After 72 hours, cells were washed with PBS, and stored at −80° C. prior to analysis using CyQuant® Proliferation Analysis Kit (Invitrogen) as per manufacturers' protocol for relative fluorescence units. Alternatively, cells were plated 2×10^5/well in 12-well plates (Midwest Scientific) in triplicate prior to drug treatment. After 120 hour treatment, cell number was established using a Coulter Particle Counter (Beckman). Or, cells were plated (0.5 or 1×10^5/well) in 24-well plates (Midwest Scientific), 3×. After 72 hour treatment, cell number established using Coulter Particle Counter (Beckman). Oleic acid-albumin (Sigma Aldrich) was added to media at 5 μM, and was applied adjuvant to drug treatment. Drug stocks were prepared in DMSO (Sigma) at 1000×. EC50 dosing per cell line was calculated using CalcuSyn® analytical software.
The efficacy of pharmacologic inhibition of this enzyme on tumor cell proliferation after a 72H treatment was determined, using A939572-a commercially available small molecule SCD1 inhibitor (Xin Z, Zhao H, Serby M D, Liu B, Liu M, Szczepankiewicz B G, Nelson L T, Smith H T, Suhar T S, Janis R S, Cao N, Camp H S, Collins C A, Sham H L, Surowy T K, Liu G. Discovery of piperidine-aryl urea-based stearoyl-CoA desaturase 1 inhibitors. Bioorg Med Chem Lett. 2008; 18(15):4298-302). […] Despite conspicuous SCD1 expression in 4 of the 5 FTC cells tested, no response to A939572 was observed (FIG. 10D).
THJ29T, THJ16T, and KTC2 were treated with carfilzomib (FIG. 12A) or bortezomib for 72H in order to establish EC50 values. […] Anti-proliferative drug synergy was evaluated in THJ29T and THJ16T treated with either A939572 or MF-438 in combination with either bortezomib or carfilzomib for 48H. Synergy was assessed using CalcuSyn analytical software, which determines the combination index (CI) based on the Chou-Talalay method where CI values >1 represent an antagonistic effect and values <1 represent synergy, and lower values signify enhanced synergy (Chou T C, Talalay P. Analysis of Combined Drug Effects—a New Look at a Very Old Problem. Trends in Pharmacological Sciences. 1983; 4(11):450-4).

Structure (SMILES)	PARP cleavage as compared to DMSO control [1]	apoptosis as evaluated by PARP cleavage [2]	rescue of proliferation with OA [3]	proliferation (ATC cells)	50% effective concentrations (EC50) (ATC cells)
CNC(=O)c1cccc(NC(=O)N2CCC(Oc3ccccc3Cl)CC2)c1 [A939572]	significant PARP cleavage	induced apoptosis	complete rescue of proliferation	dose-dependent decrease in proliferation	low nanomolar dose range
Cc1nnc(-c2ccc(N3CCC(Oc4ccccc4C(F)(F)F)CC3)nn2)s1 [MF-438, 2-methyl-5-(6-(4-(2-(trifluoromethyl)phenoxy)piperidin-1-yl)pyridazin-3-yl)-1,3,4-thiadiazole]	significant PARP cleavage		complete rescue of proliferation	dose-dependent decrease in ATC proliferation	low nanomolar dose range
